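Dose response: 5 concentrations. Exposure: 48 h. Format: 96-well plates. Endpoint: linear interpolation; highest concentration if not reached. The concentration for full growth arrest is given as TGI.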
What was measured:
Experiment in all cases: growth of human tumour cells (NCI), 48 h
[1] = test system: HL-60(TB) leukemia
[2] = test system: MOLT-4 leukemia
[3] = test system: HCT-116 colon
[4] = test system: T-47D breast
[5] = test system: HOP-92 NSCLC
[6] = test system: SF-295 CNS
[7] = test system: UACC-257 melanoma
[8] = test system: HOP-62 NSCLC
[9] = test system: CCRF-CEM leukemia
[10] = test system: K-562 leukemia
[11] = test system: RXF 393 renal
[12] = test system: DU-145 prostate
[13] = test system: UO-31 renal
[14] = test system: SN12C renal
[15] = test system: NCI-H460 lung
[16] = test system: ACHN renal
[17] = test system: SNB-19 CNS
[18] = test system: OVCAR-3 ovarian
[19] = test system: KM12 colon
[20] = test system: HS 578T breast
[21] = test system: M14 melanoma
[22] = test system: PC-3 prostate
[23] = test system: UACC-62 melanoma
[24] = test system: COLO 205 colon
[25] = test system: OVCAR-8 ovarian
[26] = test system: SK-MEL-2 melanoma
[27] = test system: NCI-H23 lung
[28] = test system: TK-10 renal
[29] = test system: SK-OV-3 ovarian
[30] = test system: OVCAR-4 ovarian
[31] = test system: NCI/ADR-RES ovarian
[32] = test system: SK-MEL-5 melanoma
[33] = test system: U251 CNS
[34] = test system: MALME-3M melanoma
[35] = test system: SF-268 CNS
[36] = test system: HCC-2998 colon
[37] = test system: SW-620 colon
[38] = test system: RPMI-8226 leukemia
[39] = test system: SK-MEL-28 melanoma
[40] = test system: MCF7 breast
[41] = test system: A498 renal
[42] = test system: CAKI-1 renal
[43] = test system: BT-549 breast
[44] = test system: EKVX NSCLC
[45] = test system: 786-0 renal
[46] = test system: MDA-MB-435
[47] = test system: NCI-H226 lung
[48] = test system: HCT-15 colon
[49] = test system: A549 NSCLC
[50] = test system: OVCAR-5 ovarian
[51] = test system: MDA-N
[52] = test system: NCI-H522 lung
[53] = test system: SF-539 CNS
[54] = test system: MDA-MB-231 breast
[55] = test system: IGROV1 ovarian
[56] = test system: SNB-75 CNS
[57] = test system: LOX IMVI melanoma
[58] = test system: SR leukemia
[59] = test system: HT29 colon

CO[C@H]1C[C@H](O[C@H]2CC[C@]3(C=O)[C@H]4CC[C@]5(C)[C@@H](C6=CC(=O)OC6)CC[C@]5(O)[C@@H]4CC[C@]3(O)C2)O[C@H](C)[C@H]1O
TGI [1]: 2.51 µM
TGI [2]: 2.89 µM
TGI [3]: 0.737 µM
TGI [4]: 5.31 µM
TGI [5]: 1.73 µM
TGI [6]: 0.671 µM
TGI [7]: 1.43 µM
TGI [8]: 0.135 µM
TGI [9]: > 100 µM
TGI [10]: 1.35 µM
TGI [11]: 0.189 µM
TGI [12]: 0.462 µM
TGI [13]: 2.53 µM
TGI [14]: 0.201 µM
TGI [15]: 0.176 µM
TGI [16]: 1.92 µM
TGI [17]: 4.8 µM
TGI [18]: 0.556 µM
TGI [19]: 1.93 µM
TGI [20]: > 31.6 µM
TGI [21]: 4.19 µM
TGI [22]: 1.04 µM
TGI [23]: 1.27 µM
TGI [24]: 1.83 µM
TGI [25]: 1.03 µM
TGI [26]: 2.04 µM
TGI [27]: 0.787 µM
TGI [28]: 0.758 µM
TGI [29]: 0.815 µM
TGI [30]: 0.341 µM
TGI [31]: 2.3 µM
TGI [32]: 0.385 µM
TGI [33]: 2.63 µM
TGI [34]: 2.86 µM
TGI [35]: 0.577 µM
TGI [36]: 8.36 µM
TGI [37]: 2.71 µM
TGI [38]: 6.6 µM
TGI [39]: 5.37 µM
TGI [40]: 13.1 µM
TGI [41]: 1.34 µM
TGI [42]: 0.0947 µM
TGI [43]: 0.818 µM
TGI [44]: 0.79 µM
TGI [45]: 1.57 µM
TGI [46]: 1.47 µM
TGI [47]: 1.28 µM
TGI [48]: 0.732 µM
TGI [49]: 0.198 µM
TGI [50]: 1.35 µM
TGI [51]: 1.87 µM
TGI [52]: 0.499 µM
TGI [53]: 0.218 µM
TGI [54]: 5.34 µM
TGI [55]: 7.86 µM
TGI [56]: 3.13 µM
TGI [57]: 8.31 µM

CC(C)(C)C1CC[C@H](O)[C@H]([C@H](O)CC2CC(=O)N(c3ccccc3)C(=O)C2)C1 (some centres not stated)
TGI [1]: > 100 µM
TGI [2]: > 100 µM
TGI [3]: > 100 µM
TGI [5]: > 100 µM
TGI [6]: > 100 µM
TGI [7]: > 100 µM
TGI [8]: > 100 µM
TGI [9]: > 100 µM
TGI [10]: > 100 µM
TGI [11]: > 100 µM
TGI [12]: > 100 µM
TGI [13]: > 100 µM
TGI [14]: > 100 µM
TGI [15]: > 100 µM
TGI [16]: > 100 µM
TGI [17]: > 100 µM
TGI [18]: > 100 µM
TGI [19]: > 100 µM
TGI [20]: > 100 µM
TGI [21]: > 100 µM
TGI [22]: > 100 µM
TGI [23]: > 100 µM
TGI [25]: > 100 µM
TGI [27]: > 100 µM
TGI [28]: > 100 µM
TGI [30]: > 100 µM
TGI [31]: > 100 µM
TGI [32]: > 100 µM
TGI [33]: > 100 µM
TGI [34]: > 100 µM
TGI [35]: > 100 µM
TGI [36]: > 100 µM
TGI [37]: > 100 µM
TGI [39]: > 100 µM
TGI [40]: > 100 µM
TGI [41]: > 100 µM
TGI [42]: > 100 µM
TGI [43]: > 100 µM
TGI [44]: > 100 µM
TGI [58]: > 100 µM
TGI [45]: > 100 µM
TGI [46]: > 100 µM
TGI [47]: > 100 µM
TGI [48]: > 100 µM
TGI [49]: > 100 µM
TGI [50]: > 100 µM
TGI [51]: > 100 µM
TGI [52]: > 100 µM
TGI [59]: > 100 µM
TGI [53]: > 100 µM
TGI [54]: > 100 µM
TGI [55]: > 100 µM
TGI [56]: > 100 µM
TGI [57]: > 100 µM

CSc1ccc(C(=O)C(=O)c2ccc(SC)s2)s1
TGI [1]: > 10 µM
TGI [2]: 7.78 µM
TGI [3]: > 10 µM
TGI [4]: > 10 µM
TGI [5]: > 10 µM
TGI [6]: > 10 µM
TGI [7]: > 10 µM
TGI [8]: > 10 µM
TGI [9]: > 10 µM
TGI [10]: > 10 µM
TGI [11]: > 10 µM
TGI [12]: > 10 µM
TGI [13]: > 10 µM
TGI [14]: > 10 µM
TGI [15]: > 10 µM
TGI [16]: > 10 µM
TGI [17]: > 10 µM
TGI [18]: > 10 µM
TGI [19]: > 10 µM
TGI [20]: > 10 µM
TGI [21]: > 10 µM
TGI [22]: > 10 µM
TGI [23]: > 10 µM
TGI [24]: > 10 µM
TGI [25]: > 10 µM
TGI [26]: > 10 µM
TGI [27]: > 10 µM
TGI [28]: > 10 µM
TGI [29]: > 10 µM
TGI [30]: > 10 µM
TGI [31]: > 10 µM
TGI [32]: > 10 µM
TGI [33]: > 10 µM
TGI [35]: > 10 µM
TGI [36]: > 10 µM
TGI [37]: > 10 µM
TGI [38]: > 10 µM
TGI [39]: > 10 µM
TGI [40]: > 10 µM
TGI [42]: > 10 µM
TGI [44]: > 10 µM
TGI [58]: > 10 µM
TGI [45]: > 10 µM
TGI [46]: > 10 µM
TGI [47]: > 10 µM
TGI [48]: > 10 µM
TGI [49]: > 10 µM
TGI [50]: > 10 µM
TGI [51]: > 10 µM
TGI [52]: > 10 µM
TGI [59]: > 10 µM
TGI [53]: > 10 µM
TGI [54]: > 10 µM
TGI [55]: > 10 µM
TGI [56]: > 10 µM
TGI [57]: > 10 µM

— PubChem BioAssay (NCI)
